Results on six compounds are retold here after paper PMC10269072, “Predicting Optimal Antimalarial Drug Combinations from a Standardized Plasmodium falciparum Humanized Mouse Model” (Antimicrobial Agents and Chemotherapy, 2023).

The nature of data set [1]: Concentration of drugs in whole blood of P. falciparum 3D7^0087/N9-infected HuMice after oral dosing (LC-MS/MS, PK analysis). Type of data set: in vivo, mice. The settings on record: for AUC(0-t) / Cmax / Tmax / AUC0toTlast: mouse, in vivo; for AUC(0-t): AUC0toTlast. How it is done:
(§1) Before drug administration, each infected mouse was randomly assigned to its corresponding treatment. […] The treatments were administered by oral gavage with 20-gauge straight reusable feeding needles (Fine Science Tools GmbH, Heidelberg, Germany). The volume of administration for the per os (p.o.) route was 10 mL/kg of body weight unless otherwise stated.
The concentrations of drugs were measured in whole blood of P. falciparum 3D7^0087/N9-infected HuMice since the amount of plasma that could be obtained from each mouse was very low. Samples of peripheral blood (25 μL) were taken at different time points after dosing, mixed with 25 μL of 10.9 mM potassium oxalate and 59.5 mM sodium fluoride in Milli-Q water, and immediately frozen on a thermal block at −80°C. The frozen samples were stored at −80°C until analysis. Blood from P. falciparum 3D7^0087/N9-infected HuMice harboring a parasitemia of ~1.4% was used for preparation of standard curves, calibration, and quality control samples. The drugs were extracted from 10 μL of lysates, obtained by protein precipitation of blood samples, by using standard liquid-liquid extraction methods. The samples were analyzed by liquid chromatography-tandem mass spectrometry (LC-MS/MS) for quantification in Waters Micromass ultrahigh-performance triple quadrupole (UPLC-TQD) (Waters, Manchester, UK) mass spectrometers.
Multivariate linear regression, logistic regression, and descriptive statistics were carried out using GraphPad Prism 9.0 (GraphPad Software, San Diego, CA). The comparison of regression models was executed using the Akaike information criterion ([57]). Probability values of <0.05 were considered significant. Phoenix WinNonlin 8.2 (Certara, St. Louis, MO) was used for PK standard analysis.

The test system of data set [2] is P. falciparum 3D7^0087/N9. Nature of the data set: PfalcHuMouse model: therapeutic efficacy (parasite clearance, day of recrudescence, cure) in P. falciparum-infected humanized NSG mice. Type of data set: in vivo, Plasmodium falciparum. The settings on record: for day after which no recrudescence occurred (DoR): oral monotherapy, historical data, different dose levels and schedules, drugs with curative exposures in the data set; for exposure leading to 95% probability of cure: logistic regression of historical data.
Source text: To implement the PfalcHuMouse model for analysis of combinations, we first defined the variables of therapeutic response and their interpretation in the context of this analysis. These variables were parasite clearance (PC), parasite recrudescence (PR), and cure (Fig. 2a). […] In our studies, we estimated PC by measuring the ratio of parasitemia in blood at 48-h intervals (pDn/pDn+2, where pD stands for parasitemia and n indicates the day of the assay), which was a simplified alternative of the classical approach and is frequently used in clinical studies. Conversely, PR depends on the number of viable parasites remaining in the body that could proliferate after noneffective treatment and is not systematically used to measure parasite killing in vivo. To test PR validity, we hypothesized that the time point for recrudescent parasitemia to reach the value at the onset of drug treatment (i.e., day of recrudescence [DoR]) correlated with the number of parasites that survived antimalarial treatment ([35]). […] It is important to note that both DoRs, days 0 and 60, represented not quantifiable magnitudes but labels of specific conditions (i.e., therapeutic failure and cure, respectively).
Experimental infections were carried out as previously described ([12]), with minor modifications. Briefly, NSG mice were engrafted with hE by intraperitoneal daily injections of 1-mL hE suspensions until a minimum of 40% chimerism in peripheral blood was achieved (typically10 days of injections). The hE-engrafted mice (HuMice) were infected with 0.3 mL of a suspension of pooled blood collected by aseptic cardiac puncture from CO2-euthanized donor HuMice harboring a parasitemia of 5 to 10% P. falciparum 3D7^0087/N9.
as §1
The quantification of parasitemia at different time points after the infection was performed by flow cytometry as previously described ([46]). Briefly, 2 μL of blood was taken from the lateral tail vein of HuMice and stained with SYTO-16 (Fisher Scientific), a membrane-permeable nonselective fluorescent nucleic acid dye to detect intraerythrocytic parasites, and TER119-phycoerythrin monoclonal antibody (Miltenyi Biotec, Bergisch Gladbach, Germany) as a marker of murine erythrocytes, exactly as described. The samples were acquired and analyzed in a Attune NxT acoustic focusing flow cytometer (Thermo Fisher Scientific, Waltham, MA). The limit of quantification was set to 0.01%, where a minimum of 100 infected events was considered the minimal statistically significant sample (~10^6 total erythrocytes counted for detection). Parasitemia was expressed as the percentage of parasitized erythrocytes with respect to the total erythrocytes in circulation and/or as the absolute concentration of circulating parasitized erythrocytes. For qualitative assessment of blood samples from infected mice, blood smears stained with 10% (vol/vol) Giemsa in saline buffer (0.015 M NaCl, 0.001 M phosphate buffer [pH 7.0]) were prepared and analyzed as described previously ([56]) in a Zeiss Primo Star 4 microscope (Thermo Fisher Scientific) at a magnification of ×100.
The treated mice that reached the limit of detection by standard flow cytometry (<0.01% from total circulating erythrocytes) after pharmacological treatment were maintained until day 60 of study.

A short description of data set [3]: Blood partitioning: distribution of drugs in plasma, erythrocytes and infected erythrocytes of the PfalcHuMouse. Type of data set: in vivo, mice. The settings on record: for fraction associated with circulating erythrocytes / fraction found in plasma: mouse, in vivo. From the text:
Given their physicochemical properties, both ferroquine and piperaquine might accumulate in infected erythrocytes ([41]), so we mined data on the distribution of these drugs in plasma, erythrocytes, and infected erythrocytes of the PfalcHuMouse from previous blood partitioning studies in unrelated drug discovery programs. Approximately 97.5% of both ferroquine and piperaquine was associated with circulating erythrocytes, while only 2.5% was found in plasma. For piperaquine, the accumulation was even higher in erythrocytes of infected individuals (>99%). Moreover, as previously reported ([13]), there was no sequestration of P. falciparum in vascular endothelium of the PfalcHuMouse. Therefore, the contribution of drug accumulated in mature parasites circulating in blood might be relevant, especially in proliferating parasites exposed to noninhibitory concentrations. Consequently, we corrected this effect on drug exposure in blood by dividing the total drug exposure levels in blood by the number of infected erythrocytes in circulation for each animal in the study.

Where [4] appears, read: artefenomel plus piperaquine model, intercept 102.8, n = 40, Tjur's R^2 = 0.91.
[5] abbreviates: ferroquine plus artefenomel model, intercept 17.2, n = 50, Tjur's R^2 = 0.31.

By AUC(0-t) is commonly meant exposure summed from dosing to a finite time, without extrapolation to infinity. Usually Cmax stands for the highest concentration seen after dosing. For orientation: Tmax means the time from dosing to the highest level.

As to `CNC[c-]1cccc1CNc1ccnc2cc(Cl)ccc12.[Fe+2].c1cc[cH-]c1` (stereo not shown) [SSR97213], in data set [1] (average, main metabolite of ferroquine), the “share of the total exposure of ferroquine plus SSR97213” value turned out to be 40%.

Turning to `c1cc([C@H]2CC[C@]3(CC2)OO[C@]2(O3)C3CC4CC(C3)CC2C4)ccc1OCCN1CCOCC1` [artefenomel], the “coefficient of log10AUC in logistic model of cure log(p/1−p)” value (“coefficient … of cure log(p/1−p)” below) in data set [2] (setting [4]) was determined as 16.2. In addition, the “coefficient … of cure log(p/1−p)” value in data set [2] (setting [5]) was 1.6. Besides, the “pattern of interaction with piperaquine on parasite killing in vivo” value in data set [2] (graphic analysis of cure, assuming potency of artefenomel in the same order of magnitude as piperaquine) was “synergistic”. Moreover, in data set [2] (graphic analysis of cure, conditioned by large difference in intrinsic potency), the “mechanistic pattern of interaction with ferroquine” value was “additivity”. Further, the “exposure up to which no cures were available in monotherapy” value in data set [2] (monotherapy, schedules of treatment used in the experimental studies) is reported as “up to 4.7 × 10^−3 nmol/10^6 iE”. In data set [1] (po, 100 mg/kg), the AUC(0-t) worked out at 40900 ng·h/mL, the maximum concentration (Cmax) was determined as 2200 ng/mL and the time of peak concentration (Tmax) came to 2 h.

Consider `CCCCN(CCCC)CC(O)c1cc(Cl)cc2c1-c1ccc(Cl)cc1/C2=C/c1ccc(Cl)cc1` (stereo not shown) [lumefantrine], for which the “day after which no recrudescence occurred (DoR)” value in data set [2] is at most 35 days.

Turning to `Clc1ccc2c(N3CCN(CCCN4CCN(c5ccnc6cc(Cl)ccc56)CC4)CC3)ccnc2c1` [piperaquine], the “coefficient … of cure log(p/1−p)” value in data set [2] (setting [4]) is recorded as 24.2. Further, in data set [2] (monotherapy), the “exposure leading to 95% probability of cure” value is given as 3.47 × 10^−3 nmol/10^6 infected erythrocytes (iE). The “accumulation in erythrocytes of infected individuals” value in data set [3] (PfalcHuMouse, infected individuals) is over 99%. For the same compound, in data set [3], the “fraction associated with circulating erythrocytes” value is listed as “Approximately 97.5%” and the “fraction found in plasma” value is listed as 2.5%. Further, in data set [1] (po, 5 mg/kg), the AUC(0-t) stood at 25300 ng·h/mL and the peak level (Cmax) was 598 ng/mL. In data set [1] (po, 10 mg/kg), this compound had an AUC(0-t) of 21800 ng·h/mL and a peak concentration (Cmax) of 346 ng/mL. In addition, in data set [1] (po, 25 mg/kg), the AUC(0-t) came out at 41900 ng·h/mL, the highest concentration (Cmax) turned out to be 414 ng/mL and the Tmax was 77 h. In addition, in data set [1] (po, 40 mg/kg), the AUC0toTlast stood at 38866 ng·h/mL, the AUC(0-t) was found to be 70000 ng·h/mL and the Cmax is 1120 ng/mL. Also, in data set [1] (po, 75 mg/kg), the area under the curve AUC(0-t) was found to be 355000 ng·h/mL, the concentration peaked (Cmax) at 2550 ng/mL and the time to peak (Tmax) was 109 h.

Take `COc1ccc2nc3cc(Cl)ccc3c(Nc3cc(CN4CCCC4)c(O)c(CN4CCCC4)c3)c2n1` [pyronaridine]: the “day after which no recrudescence occurred (DoR)” value in data set [2] is at most 35 days.

In the case of ferroquine, the “coefficient … of cure log(p/1−p)” value in data set [2] (setting [5]) came to 5.4. For the same compound, the “exposure leading to 95% probability of cure” value in data set [2] (monotherapy) is 0.58 × 10^−3 nmol/10^6 infected erythrocytes (iE). For the same compound, in data set [3], the “fraction associated with circulating erythrocytes” value is reported as “Approximately 97.5%” and the “fraction found in plasma” value came out at 2.5%. The same compound showed an AUC0toTlast in data set [1] (20 mg/kg) of 4708 ng·h/mL.
